Source: patent publication US20230257374A1, “NOVEL KRAS G12C PROTEIN INHIBITOR, PREPARATION METHOD THEREFOR, AND USE THEREOF” (INNOVENT BIOLOGICS (SUZHOU) CO., LTD., priority 2019, published 2023)

Columns and labels:
[1] = Stability test in human plasma
Procedure: To examine the stability of the test compounds in plasma, representative compounds were selected for evaluation.
Preparation of stock solution: a test compound was dissolved in DMSO to prepare a 1 mM stock solution for later use; Propantheline Bromide was dissolved in acetonitrile to prepare a 1 mM stock solution as a positive control for later use.
To each well was added 2 μL of the stock solution of the test compound and the stock solution of the positive control such that the final concentrations were 5 KM and the concentration of the organic solvent was 0.5%. Each compound was prepared in duplicate, followed by incubation at 37° C. 50 μL of samples were taken from the reaction samples in equal amounts at 0, 30, 60, 120, 180 and 240 minutes, and 450 μL of cold acetonitrile containing an internal standard was added to terminate the reaction. […] 100 μL of the supernatants were transferred to a new plate, dilute with ultra-pure water, and analyzed by LC-MS/MS.
Data results were calculated according to peak area ratios.
The percentage of remaining compound for each time point was calculated as follows:
Remaining percentagemin(%)=peak area ratiosmin/peak area ratiomin×100%
where peak area ratios represents the peak area ratio of the test compound to the internal standard compound at t min; peak area ratiomin represents the peak area ratio of the test compound to the internal standard compound at 0 min (initial).

KRAS G12C protein = molecular target: T1, KRAS G12C protein (Homo sapiens, UniProt P01116, G12C); experiment: ERK protein phosphorylation assay (p-ERK) in H358 cells; type: cell-based; design: scale not given here; conditions: H358 cells expressing KRAS G12C protein, 3 h incubation with compound; read-out: IC50, inhibiting phosphorylation of KRAS G12C protein-mediated downstream signaling (p-ERK)
T1 construct: H358 cells (ATCC, CRL-5807) expressing KRAS G12C protein; host or cells: H358 (NCI-H358) cells
T1 sequence (P01116 1-188 isoform P01116-2 G12C): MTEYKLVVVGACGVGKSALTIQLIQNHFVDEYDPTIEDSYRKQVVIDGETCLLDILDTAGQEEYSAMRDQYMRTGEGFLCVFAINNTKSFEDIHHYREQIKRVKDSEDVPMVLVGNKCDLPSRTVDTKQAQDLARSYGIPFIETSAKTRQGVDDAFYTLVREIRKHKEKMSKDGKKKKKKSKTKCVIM
Procedure: The cells were cultured in a 5% CO2 cell incubator for 16 h. The serially diluted compound was added to the cell medium with Echo550 at a final DMSO concentration of 0.5%, and the incubation was continued for 3 h. Then 8% paraformaldehyde (Solarbio, P1112) was added at 40 μL/well, followed by incubation at room temperature for 20 min. After one washing with PBS, cold 100% methanol was added at 40 μL/well for permeabilization for 10 min. […] Washing with PBST was performed 3 times, with 2 min of incubation for each washing. […] Washing with PBST was performed 3 times, with 2 min of incubation for each washing. Finally, the cell culture plate was inverted and centrifuged at 1000 rpm for 1 min, after which fluorescence signals were read using Odyssey CLx.

## CC(C)[N+](C)(CCOC(=O)C1c2ccccc2Oc2ccccc21)C(C)C [Propantheline Bromide, reference compound]
[1]; human plasma, 37° C., 0 min
  Remaining percentage (%) 0 min: 100.00%
[1]; human plasma, 37° C., 30 min
  Remaining percentage (%) 30 min: 33.35%
[1]; human plasma, 37° C., 60 min
  Remaining percentage (%) 60 min: 7.71%
[1]; human plasma, 37° C., 120 min
  Remaining percentage (%) 120 min: 0.15%
[1]; human plasma, 37° C., 180 min
  Remaining percentage (%) 180 min: BLOD
[1]; human plasma, 37° C., 240 min
  Remaining percentage (%) 240 min: BLOD
[1]; human, plasma
  half-life at 5 μM: 19 min

## [2H]C([2H])([2H])c1cccc2cccc(N3CCc4c(nc(OC[C@@H]5CCCN5C)nc4N4CCN(C(=O)C(=C)F)[C@@H](CC#N)C4)C3)c12 [Compound 2, 2-((S)-1-(2-fluoroacryloyl)-4-(7-(8-(methyl-d3)naphthalen-1-yl)-2-(((S)-1-methylpyrrolidin-2-yl)methoxy)-5,6,7,8-tetrahydropyrido[3,4-d]pyrimidin-4-yl)piperazin-2-yl)acetonitrile]
KRAS G12C protein
  IC50: < 1000 nM

## [2H]C([2H])([2H])N1CCC[C@H]1COc1nc2c(c(N3CCN(C(=O)C=C)[C@@H](CC#N)C3)n1)CCN(c1cncc3cccc([14CH3])c13)C2 [Compound 32, 2-((S)-1-acryloyl-4-(2-(((S)-1-(methyl-d3)pyrrolidine-2-yl)methoxy)-7-(5-(methyl-^14C)isoquinolin-4-yl)-5,6,7,8-tetrahydropyrido[3,4-d]pyrimidin-4-yl)piperazin-2-yl)acetonitrile]
KRAS G12C protein
  IC50: < 1000 nM

## C=C(F)C(=O)N1CCN(c2nc(OC[C@@H]3CCCN3C)nc3c2CCN(c2cncc4cccc([14CH3])c24)C3)C[C@@H]1CC#N [Compound 14, 2-((S)-1-(2-fluoroacryloyl)-4-(7-(5-(methyl-^14C)isoquinolin-4-yl)-2-(((S)-1-methylpyrrolidin-2-yl)methoxy)-5,6,7,8-tetrahydropyrido[3,4-d]pyrimidin-4-yl)piperazin-2-yl)acetonitrile]
KRAS G12C protein
  IC50: < 1000 nM

## [2H]C([2H])([2H])c1cccc2cccc(N3CCc4c(nc(OC[C@@H]5CCCN5C)nc4N4CCN(C(=O)C(=C)F)[C@@H](C)C4)C3)c12 [Compound 5, 2-fluoro-1-((S)-2-methyl-4-(7-(8-(methyl-d3)naphthalen-1-yl)-2-(((S)-1-methylpyrrolidin-2-yl)methoxy)-5,6,7,8-tetrahydropyrido[3,4-d]pyrimidin-4-yl)piperazin-1-yl)-2-propen-1-one]
KRAS G12C protein
  IC50: < 1000 nM

## [2H]C([2H])([2H])N1CCC[C@H]1COc1nc2c(c(N3CCN(C(=O)/C=C/CNC4CC4)[C@@H](CC#N)C3)n1)CCN(c1cccc3cccc(C)c13)C2 [Compound 19, 2-((S)-1-((E)-4-(cyclopropylamino)-2-butenoyl)-4-(2-(((S)-1-(methyl-d3)pyrrolidin-2-yl)methoxy)-7-(8-methylnaphthalen-1-yl)-5,6,7,8-tetrahydropyrido[3,4-d]pyrimidin-4-yl)piperazin-2-yl)acetonitrile]
KRAS G12C protein
  IC50: < 1000 nM

## [2H]C([2H])([2H])c1cccc2cncc(N3CCc4c(nc(OC[C@@H]5CCCN5C)nc4N4CCN(C(=O)C=C)[C@@H](CC#N)C4)C3)c12 [Compound 4, 2-((S)-1-acryloyl-4-(7-(5-(methyl-d3)isoquinolin-4-yl)-2-(((S)-1-methylpyrrolidin-2-yl)methoxy)-5,6,7,8-tetrahydropyrido[3,4-d]pyrimidin-4-yl)piperazin-2-yl)acetonitrile]
KRAS G12C protein
  IC50: < 1000 nM

## [2H]C([2H])([2H])N1CCC[C@H]1COc1nc2c(c(N3CCN(C(=O)C=C)[C@@H](CC#N)C3)n1)CCN(c1cncc3cccc(C)c13)C2 [Compound 30, 2-((S)-1-acryloyl-4-(2-(((S)-1-(methyl-d3)pyrrolidin-2-yl)methoxy)-7-(5-methylisoquinolin-4-yl)-5,6,7,8-tetrahydropyrido[3,4-d]pyrimidin-4-yl)piperazin-2-yl)acetonitrile]
KRAS G12C protein
  IC50: < 1000 nM

## [2H]C([2H])([2H])N1CCC[C@H]1COc1nc2c(c(N3CCN(C(=O)C=C)[C@@H](CC#N)C3)n1)CCN(c1cncc3cccc(Cl)c13)C2 [Compound 20, 2-((S)-1-acryloyl-4-(7-(5-chloroisoquinolin-4-yl)-2-(((S)-1-(methyl-d3)pyrrolidin-2-yl)methoxy)-5,6,7,8-tetrahydropyrido[3,4-d]pyrimidin-4-yl)piperazin-2-yl)acetonitrile]
KRAS G12C protein
  IC50: < 1000 nM

## C=CC(=O)N1CCN(c2nc(OC[C@@H]3CCCN3C)nc3c2CCN(c2cccc4cccc([14CH3])c24)C3)C[C@@H]1CC#N [Compound 12, 2-((S)-1-acryloyl-4-(7-(8-(methyl-^14C)naphthalen-1-yl)-2-(((S)-1-methylpyrrolidin-2-yl)methoxy)-5,6,7,8-tetrahydropyrido[3,4-d]pyrimidin-4-yl)piperazin-2-yl)acetonitrile]
KRAS G12C protein
  IC50: < 1000 nM

## [2H]C([2H])([2H])c1cccc2cccc(N3CCc4c(nc(OC[C@@H]5CCCN5C([2H])([2H])[2H])nc4N4CCN(C(=O)C=C)[C@@H](C)C4)C3)c12 [Compound 21, 1-((S)-2-methyl-4-(7-(8-(methyl-d3)naphthalen-1-yl)-2-(((S)-1-(methyl-d3)pyrrolidin-2-yl)methoxy)-5,6,7,8-tetrahydropyrido[3,4-d]pyrimidin-4-yl)piperazin-1-yl)-2-propen-1-one]
KRAS G12C protein
  IC50: < 1000 nM

## [2H]C([2H])([2H])C([2H])([2H])N1CCC[C@H]1COc1nc2c(c(N3CCN(C(=O)C=C)[C@@H](CC#N)C3)n1)CCN(c1cccc3cccc(C)c13)C2 [Compound 35, 2-((S)-1-acryloyl-4-(2-(((S)-1-(ethyl-d5)pyrrolidin-2-yl)methoxy)-7-(8-methylnaphthalen-1-yl)-5,6,7,8-tetrahydropyrido[3,4-d]pyrimidin-4-yl)piperazin-2-yl)acetonitrile]
KRAS G12C protein
  IC50: < 1000 nM

## [2H]C([2H])([2H])c1cccc2cccc(N3CCc4c(nc(OC[C@@H]5CCCN5C([2H])([2H])[2H])nc4N4CCN(C(=O)C=C)C[C@@H]4C)C3)c12 [Compound 24, 1-((S)-3-methyl-4-(7-(8-(methyl-d3)naphthalen-1-yl)-2-(((S)-1-(methyl-d3)pyrrolidin-2-yl)methoxy)-5,6,7,8-tetrahydropyrido[3,4-d]pyrimidin-4-yl)piperazin-1-yl)-2-propen-1-one]
KRAS G12C protein
  IC50: < 1000 nM

## C=CC(=O)N1CCN(c2nc(OC[C@@H]3CCCN3C)nc3c2CCN(c2cccc4cccc([11CH3])c24)C3)C[C@@H]1CC#N [Compound 6, 2-((S)-1-acryloyl-4-(7-(8-(methyl-^11C)naphthalen-1-yl)-2-(((S)-1-methylpyrrolidin-2-yl)methoxy)-5,6,7,8-tetrahydropyrido[3,4-d]pyrimidin-4-yl)piperazin-2-yl)acetonitrile]
KRAS G12C protein
  IC50: < 1000 nM

## C=CC(=O)N1CCN(c2nc(OC[C@@H]3CCCN3C)nc3c2CCN(c2cncc4cccc([13CH3])c24)C3)C[C@@H]1CC#N [Compound 15, 2-((S)-1-acryloyl-4-(7-(5-(methyl-^13C)isoquinolin-4-yl)-2-(((S)-1-methylpyrrolidin-2-yl)methoxy)-5,6,7,8-tetrahydropyrido[3,4-d]pyrimidin-4-yl)piperazin-2-yl)acetonitrile]
KRAS G12C protein
  IC50: < 1000 nM
